The structures appear in SMILES notation.

One assay deals with TNFα. Briefly: LPS-induced TNF alpha release in mice. Type of assay: in vivo, Balb C ByJ mice. The following applies: oral route, 30 min before 1 mg/kg i.p. LPS; serum 2 hours after LPS; ELISA. As for the experimental part:
7 week-old Balb C ByJ mice (24-28 g) were administered, either by i.p. (5 ml/kg) or oral (10 ml/kg) administration, with vehicle or test article. 30 minutes later these animals were challenged with an intraperitoneal injection of 1 mg/kg LPS. 2 hours after LPS challenge, blood samples were collected under light isoflurane anaesthesia into normal tubes by retro-orbital puncture. Samples were allowed to clot at room temperature and then spun at 6000 g for 3 min at 4° C. Serum was stored at −20° C. until use. Serum TNFα and IL-10 levels were analysed in duplicate by ELISA technique.

Assay [1] deals with dextran sulphate-induced colonic inflammation. Kind of assay: Dextran sulphate-induced IBD model. Type of assay: in vivo, BDF1 male mice. Particulars: rectal route twice a day for 5 days. How it is done:
8-10 week-old BDF1 male mice (˜30 g) were housed in normal conditions. At the start of the study, normal water was exchanged for a 2.5% dextran sulphate solution to induce colonic inflammation. Concurrently actarit and the positive control budesonide were administered rectally twice a day for 5 days. On day 6 the animals were sacrificed and the large intestine was removed. The lower two-thirds were assessed for histological severity (scoring system; 1 mild to 4 severe).

As to `CC(=O)Nc1ccc(CC(=O)O)cc1` [actarit, 4-(acetylamino)benzeneacetic acid], the “inhibition of serum TNFalpha levels after intraperitoneal LPS administration” value in the assay on TNFα was “dose-dependant inihibition of TNFalpha levels”. For the same compound, in assay [1] (2.5% dextran sulphate in drinking water, large intestine assessed day 6), the “pathological and histological lesions” value is “can ameliorate pathological and histological lesions”. Besides, the “gross histological scores (scoring system; 1 mild to 4 severe)” value in assay [1] (2.5% dextran sulphate, compared with 0.1 mg/kg rectal budesonide) was “reduced gross histological scores induced by dextran sulphate in the drinking water of BDF1 mice, over and above the effect seen for 0.1 mg/kg rectal budesonide”.
